Data on four compounds can be found in ChEMBL document CHEMBL1129002, “Synthesis and biological evaluation of both enantiomers of L-761,000 as inhibitors of cyclooxygenase 1 and 2” (Bioorg Med Chem Lett, 1996).

The species named for data set [1] is Rattus norvegicus. In words: Clearance in rat plasma. It counts as functional, organism-based.
Data set [2] deals with T1, Prostaglandin G/H synthase 1 (Rattus norvegicus, UniProt Q63921).
T1 sequence (Q63921 whole entry): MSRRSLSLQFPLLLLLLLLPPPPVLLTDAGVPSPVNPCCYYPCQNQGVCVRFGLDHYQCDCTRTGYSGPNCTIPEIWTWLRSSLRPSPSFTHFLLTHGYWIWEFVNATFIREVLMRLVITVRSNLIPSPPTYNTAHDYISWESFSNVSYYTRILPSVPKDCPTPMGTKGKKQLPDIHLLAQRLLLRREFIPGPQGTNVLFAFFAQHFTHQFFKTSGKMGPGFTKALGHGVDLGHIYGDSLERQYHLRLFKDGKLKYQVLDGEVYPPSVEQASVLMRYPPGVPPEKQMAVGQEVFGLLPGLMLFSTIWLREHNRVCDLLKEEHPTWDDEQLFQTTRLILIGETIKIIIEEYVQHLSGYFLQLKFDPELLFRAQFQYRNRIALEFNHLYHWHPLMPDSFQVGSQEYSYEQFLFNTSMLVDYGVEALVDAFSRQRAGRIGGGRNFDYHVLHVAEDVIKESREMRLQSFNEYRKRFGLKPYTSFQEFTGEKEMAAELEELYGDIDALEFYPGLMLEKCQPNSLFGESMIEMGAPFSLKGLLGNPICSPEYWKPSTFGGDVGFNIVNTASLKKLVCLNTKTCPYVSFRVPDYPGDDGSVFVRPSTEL
In words: In vitro inhibition of Prostaglandin G/H synthase 1.

Data set [3] deals with Rattus norvegicus. Kind of data set: Compound was evaluated in vivo for its activity in the rat pyresis assay. The format is functional.
For data set [4], the target named is T2, Prostaglandin G/H synthase 2 (Rattus norvegicus, UniProt P35355).
T2 sequence (P35355 whole entry): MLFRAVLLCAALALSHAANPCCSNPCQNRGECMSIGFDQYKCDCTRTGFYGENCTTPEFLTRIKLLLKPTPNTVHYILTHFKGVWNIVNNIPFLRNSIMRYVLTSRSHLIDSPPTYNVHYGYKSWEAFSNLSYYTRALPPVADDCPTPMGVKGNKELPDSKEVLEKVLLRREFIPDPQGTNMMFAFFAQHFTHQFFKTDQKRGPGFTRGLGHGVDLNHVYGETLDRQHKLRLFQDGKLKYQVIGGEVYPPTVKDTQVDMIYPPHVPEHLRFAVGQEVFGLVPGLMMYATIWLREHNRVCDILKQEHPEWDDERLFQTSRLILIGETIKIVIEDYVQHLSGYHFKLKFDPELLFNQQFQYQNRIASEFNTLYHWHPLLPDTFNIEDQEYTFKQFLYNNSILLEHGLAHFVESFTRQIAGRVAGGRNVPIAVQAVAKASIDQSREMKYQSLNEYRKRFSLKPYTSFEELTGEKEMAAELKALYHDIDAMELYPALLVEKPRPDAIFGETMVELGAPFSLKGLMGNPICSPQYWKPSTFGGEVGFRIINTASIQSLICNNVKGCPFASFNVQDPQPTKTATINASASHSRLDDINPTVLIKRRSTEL
In words: In vitro inhibition of Prostaglandin G/H synthase 2.

Data set [5] deals with Rattus norvegicus. In words: Compound was evaluated in vivo for its activity in the rat paw edema assay. It counts as functional.
Data set [6] is described as follows: Cmax in rat plasma. The format is ADME, organism-based.

The structures appear in SMILES notation.

Turning to `COc1ccc2c(c1)c(C[C@@H](C)CC(=O)O)c(C)n2Cc1ccc(Br)cc1`, the CL (mL.min-1.kg-1) in the data set filed under Rattus norvegicus [1] turned out to be 2.8. The IC50 is above 10000 nM in data set [2] and 60 nM in data set [4]. The same compound registered an ED50 in the data set with Rattus norvegicus [3] of 1.9 mg/kg. Also, the ED30 in the data set with Rattus norvegicus [5] came to 0.4 mg/kg. In data set [6], this compound returned a Cmax of 24.3 µM.

In the data set listed under Rattus norvegicus [1], `COc1ccc2c(c1)c(CC(C)CC(=O)O)c(C)n2Cc1ccc(Br)cc1` (configuration not stated) gave a CL (mL.min-1.kg-1) of 5.7. The IC50 in data set [2] was above 10000 nM; in data set [4], 50 nM. Further, the ED30 with Rattus norvegicus [5] was determined as 0.4 mg/kg.

Compound `COc1ccc2c(c1)c(CC(=O)O)c(C)n2C(=O)c1ccc(Cl)cc1` [INDOMETHACIN] came in with an ED50 in the data set with Rattus norvegicus [3] of 1 mg/kg. Also, the ED30 in the data set with Rattus norvegicus [5] was found to be 0.4 mg/kg.

Turning to `COc1ccc2c(c1)c(C[C@H](C)CC(=O)O)c(C)n2Cc1ccc(Br)cc1`, the CL (mL.min-1.kg-1) in the data set listed under Rattus norvegicus [1] came to 21. Moreover, the figures for the IC50 in data set [2] and in data set [4] were above 10000 nM and 20 nM, respectively. In the data set on Rattus norvegicus [5], this compound showed an ED30 above 3 mg/kg. The compound also returned a Cmax in data set [6] of 14.4 µM.

Usually IC50 stands for the point on the concentration scale where inhibition reaches its midpoint. Low readings indicate greater potency, high ones weaker potency. As a reminder, the ED50 is the dose that gives a 50% effect, or the effect in half of the subjects. Read a low ED50 as greater potency. A word on the Cmax: it is the maximum level reached in the sampled fluid or tissue.
